Reference: US10098870B2 (JENKEM TECHNOLOGY CO., LTD. (BEIJING), priority 2013, dated 2018)
“And” between values parts separate entries of the source, which are not always exact repeats. Equal entries are not always repeated.

Assays:
[1] = Body weight, survival and tolerance of mice bearing Calu-6 (Example 9); conditions: mean ± SE;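 further: nude mice bearing Calu-6 tumours, established by implanting 5.0×10^6 cells at the right shoulder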
Protocol: (§1) 5.0×10^6 of Calu-6 tumor cells were suspended in 0.1 ml of PBS, inoculated to each nude mouse at the right shoulder, and there were totally 34 mice inoculated.

[2] = system: Calu-6 human lung cancer cell; experiment: Anti-tumor effect on xenograft tumor model of Calu-6 in nude mice (Example 9); conditions: for T/C (%) RTV / T/C (%) TW: vs physiological saline; for RTV / Tumor weight: 42nd day, Mean ± SEM; for Tumor volume: mean ± SE;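 on all read-outs here: each nude mouse received 5.0×10^6 Calu-6 cells implanted at the right shoulder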
Protocol: Calu-6 cells were cultured with a monolayer in vitro in MEM medium supplied with heat-inactivated fetal bovine serum with a volume ratio of 10%, and an incubator at 37° C. with the air containing CO2 with a proportion of 5%. The tumor cells were passaged with digestion by trypsin-EDTA twice a week. The cells in the exponential growth phase were collected, counted, and used for inoculation.
as §1

[3] = system: human hepatoma cell plc/prf/5; experiment: Anti-tumor effect on xenograft tumor model of plc/prf/5 in nude mice (Example 6); conditions: for T/C (%) RTV / T/C (%) TW: vs physiological saline; for RTV / Tumor weight: 38th day, Mean ± SEM; for Tumor volume: mean ± SE
Description: The tumor cells were passaged with digestion by trypsin-EDTA twice a week. The cells in the exponential growth phase were collected, counted, and used for inoculation.
10 days later the mean tumor volume was desired to reach about 161 mm^3, the mice with a smaller or larger tumor were removed and the remaining 24 mice were divided into groups randomly according to tumor volume and administrated.
Wherein QW×4W represents intravenous injection once a week for 4 weeks, BIW×4W represents intravenous injection once every two weeks for 4 weeks, the same below.

[4] = day 17 after inoculation, 30 mg/kg i.v. BIW×4W
[5] = day 17 after inoculation, 45 mg/kg i.v. QW×4W
[6] = day 21 after inoculation, 30 mg/kg i.v. BIW×4W
[7] = day 21 after inoculation, 45 mg/kg i.v. QW×4W
[8] = day 24 after inoculation, 30 mg/kg i.v. BIW×4W
[9] = day 24 after inoculation, 45 mg/kg i.v. QW×4W
[10] = day 28 after inoculation, 30 mg/kg i.v. BIW×4W
[11] = day 28 after inoculation, 45 mg/kg i.v. QW×4W
[12] = day 31 after inoculation, 30 mg/kg i.v. BIW×4W
[13] = day 31 after inoculation, 45 mg/kg i.v. QW×4W
[14] = day 35 after inoculation, 30 mg/kg i.v. BIW×4W
[15] = day 35 after inoculation, 45 mg/kg i.v. QW×4W
[16] = day 38 after inoculation, 30 mg/kg i.v. BIW×4W

In the case of “monomethoxy polyethylene glycol (20K)-glutamic acid dipeptide-rapamycin conjugate [LPR-2]”, the “Body weight of animal” value [1, 4] is reported as 21.0 ± 0.4 g, the “Body weight of animal” value [1, 5] is reported as 20.0 ± 0.4 g and the “Body weight of animal” value [1, 6] is reported as 21.7 ± 0.4 g. For the same substance, the “Body weight of animal” value [1, 7] was 19.9 ± 0.6 g, the “Body weight of animal” value [1, 8] was 21.6 ± 0.3 g and the “Body weight of animal” value [1, 9] was 20.9 ± 0.5 g. The “Body weight of animal” value [1, 10] was 22.4 ± 0.4 g, the “Body weight of animal” value [1, 11] was 21.3 ± 0.6 g and the “Body weight of animal” value [1, 12] was 21.6 ± 0.4 g. The “Body weight of animal” value [1, 13] was 20.7 ± 0.6 g, the “Body weight of animal” value [1, 14] was 22.2 ± 0.4 g and the “Body weight of animal” value [1, 15] was 21.8 ± 0.6 g. For the same substance, the “Body weight of animal” value [1, 16] was 22.3 ± 0.4 g, the “Body weight of animal” value ([1]; day 42 after inoculation, 30 mg/kg i.v. BIW×4W) was 22.4 ± 0.3 g and the “Body weight of animal” value ([1]; day 42 after inoculation, 45 mg/kg i.v. QW×4W) was 21.5 ± 0.5 g. For the same substance, the “TGD (to 1,000 mm^3)” value ([2]; 30 mg/kg i.v. BIW×4W) was over 8, the “T/C (%) RTV” value ([2]; 30 mg/kg i.v. BIW×4W) was 31% and the “T/C (%) TW” value ([2]; 30 mg/kg i.v. BIW×4W) was 28%. The “TGD (to 1,000 mm^3)” value ([2]; 45 mg/kg i.v. QW×4W) was over 8, the “T/C (%) RTV” value ([2]; 45 mg/kg i.v. QW×4W) was 38% and the “T/C (%) TW” value ([2]; 45 mg/kg i.v. QW×4W) was 37%. It also gave an RTV ([2]; 30 mg/kg i.v. BIW×4W) of 4.39 ± 0.59, a Tumor weight ([2]; 30 mg/kg i.v. BIW×4W) of 449 ± 89 mg and an RTV ([2]; 45 mg/kg i.v. QW×4W) of 5.41 ± 0.51. For the same substance, the Tumor weight ([2]; 45 mg/kg i.v. QW×4W) was 602 ± 83 mg, the Tumor volume ([2]; day 14 after inoculation, 30 mg/kg i.v. BIW×4W) was 139 ± 18 mm^3 and the Tumor volume ([2]; day 14 after inoculation, 45 mg/kg i.v. QW×4W) was 137 ± 22 mm^3. For the same substance, the Tumor volume [2, 4] was 160 ± 25 mm^3, the Tumor volume [2, 5] was 152 ± 25 mm^3 and the Tumor volume [2, 6] was 201 ± 40 mm^3. For the same substance, the Tumor volume [2, 7] was 204 ± 38 mm^3, the Tumor volume [2, 8] was 241 ± 50 mm^3 and the Tumor volume [2, 9] was 245 ± 40 mm^3. The Tumor volume [2, 10] was 274 ± 57 mm^3, the Tumor volume [2, 11] was 293 ± 44 mm^3 and the Tumor volume [2, 12] was 335 ± 76 mm^3. The Tumor volume [2, 13] was 323 ± 45 mm^3, the Tumor volume [2, 14] was 422 ± 108 mm^3 and the Tumor volume [2, 15] was 436 ± 74 mm^3. It also gave a Tumor volume [2, 16] of 504 ± 119 mm^3, a Tumor volume ([2]; day 38 after inoculation, 45 mg/kg i.v. QW×4W) of 518 ± 87 mm^3 and a Tumor volume ([2]; day 42 after inoculation, 30 mg/kg i.v. BIW×4W, 30 mg/kg) of 627 ± 145 mm^3. The Tumor volume ([2]; day 42 after inoculation, 45 mg/kg i.v. QW×4W, 45 mg/kg) was 720 ± 106 mm^3, the “TGD (to 1,000 mm^3)” value ([3]; 30 mg/kg i.v. BIW×4W) was over 12 and the “T/C (%) RTV” value ([3]; 30 mg/kg i.v. BIW×4W) was 29%. The “T/C (%) TW” value ([3]; 30 mg/kg i.v. BIW×4W) was 27%, the “TGD (to 1,000 mm^3)” value ([3]; 45 mg/kg i.v. QW×4W) was over 12 and the “T/C (%) RTV” value ([3]; 45 mg/kg i.v. QW×4W) was 46%. For the same substance, the “T/C (%) TW” value ([3]; 45 mg/kg i.v. QW×4W) was 45%, the “anti-tumor effect (in words)” value ([3]; 5-FU 25 mg/kg, LPR-2 30 and 45 mg/kg) was “significant anti-tumor effect” and the RTV ([3]; 30 mg/kg i.v. BIW×4W) was 3.48 ± 0.68. The Tumor weight ([3]; 30 mg/kg i.v. BIW×4W) was 517 ± 67 mg, the RTV ([3]; 45 mg/kg i.v. QW×4W) was 5.61 ± 0.67 and the Tumor weight ([3]; 45 mg/kg i.v. QW×4W) was 845 ± 87 mg. For the same substance, the Tumor volume ([3]; day 10 after inoculation, 30 mg/kg i.v. BIW×4W) was 171 ± 15 mm^3, the Tumor volume ([3]; day 10 after inoculation, 45 mg/kg i.v. QW×4W) was 171 ± 19 mm^3 and the Tumor volume ([3]; day 13 after inoculation, 30 mg/kg i.v. BIW×4W) was 176 ± 11 mm^3. It also gave a Tumor volume ([3]; day 13 after inoculation, 45 mg/kg i.v. QW×4W) of 180 ± 25 mm^3, a Tumor volume [3, 4] of 217 ± 25 mm^3 and a Tumor volume [3, 5] of 234 ± 28 mm^3. The Tumor volume ([3]; day 20 after inoculation, 30 mg/kg i.v. BIW×4W) was 260 ± 30 mm^3, the Tumor volume ([3]; day 20 after inoculation, 45 mg/kg i.v. QW×4W) was 257 ± 24 mm^3 and the Tumor volume [3, 8] was 303 ± 32 mm^3. It also gave a Tumor volume [3, 9] of 399 ± 25 mm^3, a Tumor volume ([3]; day 27 after inoculation, 30 mg/kg i.v. BIW×4W) of 317 ± 42 mm^3 and a Tumor volume ([3]; day 27 after inoculation, 45 mg/kg i.v. QW×4W) of 496 ± 39 mm^3. It also gave a Tumor volume [3, 12] of 395 ± 39 mm^3, a Tumor volume [3, 13] of 607 ± 60 mm^3 and a Tumor volume ([3]; day 34 after inoculation, 30 mg/kg i.v. BIW×4W) of 437 ± 44 mm^3. For the same substance, the Tumor volume ([3]; day 34 after inoculation, 45 mg/kg i.v. QW×4W) was 640 ± 93 mm^3 and the Tumor volume ([3]; day 38 after inoculation, 30 mg/kg i.v. BIW×4W, 30 mg/kg) was 553 mm^3 and 553 ± 63 mm^3.
